Reference: ChEMBL document CHEMBL3797052 (Eur J Med Chem, 2016)

System: not listed separately
Test: Antiproliferative activity against human DU145 cells assessed as growth inhibition after 48 hrs by sulforhodamine B assay
Format: functional
Details: DU-145, 48 h

Row | SMILES | GI50 | TGI
1 | CNC(=O)c1cc(Oc2ccc3nc(NC(=O)Nc4ccc(Cl)c(Cl)c4)sc3c2)ccn1 | 2.45 µM | 6.29 µM

Same assay, conditions: DU-145, 48 h, read-out: LC50 (the source's name)

Row | SMILES | CC50
2 | CNC(=O)c1cc(Oc2ccc3nc(NC(=O)Nc4ccc(Cl)c(Cl)c4)sc3c2)ccn1 | > 100 µM

System: not listed separately
Test: Antiproliferative activity against human TK10 cells assessed as growth inhibition after 48 hrs by sulforhodamine B assay
Format: functional
Details: TK-10, 48 h

Row | SMILES | GI50 | TGI
3 | CNC(=O)c1cc(Oc2ccc3nc(NC(=O)Nc4ccc(Cl)c(Cl)c4)sc3c2)ccn1 | 3.46 µM | 9.26 µM

Same assay, conditions: TK-10, 48 h, read-out: LC50 (the source's name)

Row | SMILES | CC50
4 | CNC(=O)c1cc(Oc2ccc3nc(NC(=O)Nc4ccc(Cl)c(Cl)c4)sc3c2)ccn1 | > 100 µM

System: ACHN
Test: Antiproliferative activity against human ACHN cells assessed as cell growth at 10^-6 M after 48 hrs by sulforhodamine B assay
Format: functional
Details: read-out: Activity

Row | SMILES | growth at 1 µM
5 | CNC(=O)c1cc(Oc2ccc3nc(NC(=O)Nc4ccc(Cl)c(Cl)c4)sc3c2)ccn1 | 88%

System: not listed separately
Test: Antiproliferative activity against human UACC62 cells assessed as cell growth at 10^-8 M after 48 hrs by sulforhodamine B assay
Format: functional
Details: UACC-62, 48 h, read-out: Activity

Row | SMILES | growth at 0.01 µM
6 | CNC(=O)c1cc(Oc2ccc3nc(NC(=O)Nc4ccc(Cl)c(Cl)c4)sc3c2)ccn1 | 98%

System: not listed separately
Test: Antiproliferative activity against human PC3 cells assessed as cell growth at 10^-4 M after 48 hrs by sulforhodamine B assay
Format: functional
Details: PC-3, 48 h, read-out: Activity

Row | SMILES | growth at 100 µM
7 | CNC(=O)c1cc(Oc2ccc3nc(NC(=O)Nc4ccc(Cl)c(Cl)c4)sc3c2)ccn1 | -50%

System: SK-MEL-28
Test: Antiproliferative activity against human SK-MEL-28 cells assessed as cell growth at 10^-6 M after 48 hrs by sulforhodamine B assay
Format: functional
Details: SK-MEL-28, 48 h, read-out: Activity

Row | SMILES | growth at 1 µM
8 | CNC(=O)c1cc(Oc2ccc3nc(NC(=O)Nc4ccc(Cl)c(Cl)c4)sc3c2)ccn1 | 88%

System: NCI-H460
Test: Antiproliferative activity against human NCI-H460 cells assessed as cell growth at 10^-4 M after 48 hrs by sulforhodamine B assay
Format: functional
Details: NCI-H460, 48 h, read-out: Activity

Row | SMILES | growth at 100 µM
9 | CNC(=O)c1cc(Oc2ccc3nc(NC(=O)Nc4ccc(Cl)c(Cl)c4)sc3c2)ccn1 | -17%

System: U-251
Test: Antiproliferative activity against human U251 cells assessed as growth inhibition after 48 hrs by sulforhodamine B assay
Format: functional
Details: U-251, 48 h

Row | SMILES | GI50 | LC50 | TGI
10 | CNC(=O)c1cc(Oc2ccc3nc(NC(=O)Nc4ccc(Cl)c(Cl)c4)sc3c2)ccn1 | 1.83 µM | 6.53 µM | 3.46 µM

System: NCI-H226
Test: Antiproliferative activity against human NCI-H226 cells assessed as cell growth at 10^-6 M after 48 hrs by sulforhodamine B assay
Format: functional
Details: NCI-H226, 48 h, read-out: Activity

Row | SMILES | growth at 1 µM
11 | CNC(=O)c1cc(Oc2ccc3nc(NC(=O)Nc4ccc(Cl)c(Cl)c4)sc3c2)ccn1 | 109%

System: not listed separately
Test: Antiproliferative activity against human IGROV1 cells assessed as cell growth at 10^-4 M after 48 hrs by sulforhodamine B assay
Format: functional
Details: IGROV-1, 48 h, read-out: Activity

Row | SMILES | growth at 100 µM
12 | CNC(=O)c1cc(Oc2ccc3nc(NC(=O)Nc4ccc(Cl)c(Cl)c4)sc3c2)ccn1 | -20%

System: not listed separately
Test: Antiproliferative activity against human BT549 cells assessed as growth inhibition after 48 hrs by sulforhodamine B assay
Format: functional
Details: BT-549, 48 h

Row | SMILES | GI50 | TGI
13 | CNC(=O)c1cc(Oc2ccc3nc(NC(=O)Nc4ccc(Cl)c(Cl)c4)sc3c2)ccn1 | 4.88 µM | > 100 µM

Same assay, conditions: BT-549, 48 h, read-out: LC50 (the source's name)

Row | SMILES | CC50
14 | CNC(=O)c1cc(Oc2ccc3nc(NC(=O)Nc4ccc(Cl)c(Cl)c4)sc3c2)ccn1 | > 100 µM

System: not listed separately
Test: Antiproliferative activity against human SF539 cells assessed as cell growth at 10^-7 M after 48 hrs by sulforhodamine B assay
Format: functional
Details: SF-539, 48 h, read-out: Activity

Row | SMILES | growth at 0.1 µM
15 | CNC(=O)c1cc(Oc2ccc3nc(NC(=O)Nc4ccc(Cl)c(Cl)c4)sc3c2)ccn1 | 100%

System: SN12C
Test: Antiproliferative activity against human SN12C cells assessed as cell growth at 10^-8 M after 48 hrs by sulforhodamine B assay
Format: functional
Details: read-out: Activity

Row | SMILES | growth at 0.01 µM
16 | CNC(=O)c1cc(Oc2ccc3nc(NC(=O)Nc4ccc(Cl)c(Cl)c4)sc3c2)ccn1 | 102%

System: not listed separately
Test: Antiproliferative activity against human OVCAR4 cells assessed as cell growth at 10^-6 M after 48 hrs by sulforhodamine B assay
Format: functional
Details: OVCAR-4, 48 h, read-out: Activity

Row | SMILES | growth at 1 µM
17 | CNC(=O)c1cc(Oc2ccc3nc(NC(=O)Nc4ccc(Cl)c(Cl)c4)sc3c2)ccn1 | 104%

System: not listed separately
Test: Antiproliferative activity against human HCC2998 cells assessed as growth inhibition after 48 hrs by sulforhodamine B assay
Format: functional
Details: HCC 2998, 48 h

Row | SMILES | GI50 | TGI
18 | CNC(=O)c1cc(Oc2ccc3nc(NC(=O)Nc4ccc(Cl)c(Cl)c4)sc3c2)ccn1 | 5.04 µM | > 100 µM

Same assay, conditions: HCC 2998, 48 h, read-out: LC50 (the source's name)

Row | SMILES | CC50
19 | CNC(=O)c1cc(Oc2ccc3nc(NC(=O)Nc4ccc(Cl)c(Cl)c4)sc3c2)ccn1 | > 100 µM

Target: CYP2C19 (Homo sapiens, UniProt P33261)
Test: Inhibition of recombinant human CYP2C19 assessed as remaining enzyme activity at 10 uM after 5 mins in presence of NADP by fluorescence plate reader analysis
Format: ADME
Details: read-out: Activity

Chain of CYP2C19 (P33261 whole entry): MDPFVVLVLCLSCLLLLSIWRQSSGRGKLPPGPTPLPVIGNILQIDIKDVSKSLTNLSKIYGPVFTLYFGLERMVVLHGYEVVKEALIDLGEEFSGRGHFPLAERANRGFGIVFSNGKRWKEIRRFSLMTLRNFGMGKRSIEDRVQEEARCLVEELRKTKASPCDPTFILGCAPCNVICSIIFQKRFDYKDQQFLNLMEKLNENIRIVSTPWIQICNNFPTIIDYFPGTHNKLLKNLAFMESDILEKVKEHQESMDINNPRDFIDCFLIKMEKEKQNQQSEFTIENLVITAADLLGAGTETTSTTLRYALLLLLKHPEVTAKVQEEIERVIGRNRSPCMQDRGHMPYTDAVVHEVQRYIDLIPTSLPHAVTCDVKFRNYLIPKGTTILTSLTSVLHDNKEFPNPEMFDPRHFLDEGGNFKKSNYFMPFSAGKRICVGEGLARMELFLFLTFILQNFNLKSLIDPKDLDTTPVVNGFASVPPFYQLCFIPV

Row | SMILES | activity at 5 min, 10 µM
20 | CNC(=O)c1cc(Oc2ccc3nc(NC(=O)Nc4ccc(Cl)c(Cl)c4)sc3c2)ccn1 | 83.6%

System: NCI-H322M
Test: Antiproliferative activity against human NCI-H322M cells assessed as cell growth at 10^-8 M after 48 hrs by sulforhodamine B assay
Format: functional
Details: read-out: Activity

Row | SMILES | growth at 0.01 µM
21 | CNC(=O)c1cc(Oc2ccc3nc(NC(=O)Nc4ccc(Cl)c(Cl)c4)sc3c2)ccn1 | 90%

System: EKVX
Test: Antiproliferative activity against human EKVX cells assessed as cell growth at 10^-6 M after 48 hrs by sulforhodamine B assay
Format: functional
Details: read-out: Activity

Row | SMILES | growth at 1 µM
22 | CNC(=O)c1cc(Oc2ccc3nc(NC(=O)Nc4ccc(Cl)c(Cl)c4)sc3c2)ccn1 | 86%

System: not listed separately
Test: Antiproliferative activity against human SF295 cells assessed as cell growth at 10^-7 M after 48 hrs by sulforhodamine B assay
Format: functional
Details: SF-295, 48 h, read-out: Activity

Row | SMILES | growth at 0.1 µM
23 | CNC(=O)c1cc(Oc2ccc3nc(NC(=O)Nc4ccc(Cl)c(Cl)c4)sc3c2)ccn1 | 90%

System: not listed separately
Test: Antiproliferative activity against human RPMI8226 cells assessed as cell growth at 10^-8 M after 48 hrs by sulforhodamine B assay
Format: functional
Details: RPMI-8226, 48 h, read-out: Activity

Row | SMILES | growth at 0.01 µM
24 | CNC(=O)c1cc(Oc2ccc3nc(NC(=O)Nc4ccc(Cl)c(Cl)c4)sc3c2)ccn1 | 96%

System: not listed separately
Test: Antiproliferative activity against human MOLT4 cells assessed as cell growth at 10^-4 M after 48 hrs by sulforhodamine B assay
Format: functional
Details: MOLT-4, 48 h, read-out: Activity

Row | SMILES | growth at 100 µM
25 | CNC(=O)c1cc(Oc2ccc3nc(NC(=O)Nc4ccc(Cl)c(Cl)c4)sc3c2)ccn1 | 78%

System: not listed separately
Test: Antiproliferative activity against human UO31 cells assessed as cell growth at 10^-8 M after 48 hrs by sulforhodamine B assay
Format: functional
Details: UO-31, 48 h, read-out: Activity

Row | SMILES | growth at 0.01 µM
26 | CNC(=O)c1cc(Oc2ccc3nc(NC(=O)Nc4ccc(Cl)c(Cl)c4)sc3c2)ccn1 | 86%

System: not listed separately
Test: Antiproliferative activity against human SNB75 cells assessed as cell growth at 10^-8 M after 48 hrs by sulforhodamine B assay
Format: functional
Details: SNB-75, 48 h, read-out: Activity

Row | SMILES | growth at 0.01 µM
27 | CNC(=O)c1cc(Oc2ccc3nc(NC(=O)Nc4ccc(Cl)c(Cl)c4)sc3c2)ccn1 | 76%

System: not listed separately
Test: Antiproliferative activity against human RXF393 cells assessed as cell growth at 10^-8 M after 48 hrs by sulforhodamine B assay
Format: functional
Details: RXF 393, 48 h, read-out: Activity

Row | SMILES | growth at 0.01 µM
28 | CNC(=O)c1cc(Oc2ccc3nc(NC(=O)Nc4ccc(Cl)c(Cl)c4)sc3c2)ccn1 | 99%

System: MDA-MB-231
Test: Antiproliferative activity against human MDA-MB-231 cells assessed as growth inhibition after 48 hrs by sulforhodamine B assay
Format: functional
Details: MDA-MB-231, 48 h

Row | SMILES | GI50 | TGI
29 | CNC(=O)c1cc(Oc2ccc3nc(NC(=O)Nc4ccc(Cl)c(Cl)c4)sc3c2)ccn1 | 2.15 µM | 6.43 µM

Same assay, conditions: MDA-MB-231, 48 h, read-out: LC50 (the source's name)

Row | SMILES | CC50
30 | CNC(=O)c1cc(Oc2ccc3nc(NC(=O)Nc4ccc(Cl)c(Cl)c4)sc3c2)ccn1 | > 100 µM

System: not listed separately
Test: Antiproliferative activity against human HL-60(TB) cells assessed as cell growth at 10^-6 M after 48 hrs by sulforhodamine B assay
Format: functional
Details: HL-60, 48 h, read-out: Activity

Row | SMILES | growth at 1 µM
31 | CNC(=O)c1cc(Oc2ccc3nc(NC(=O)Nc4ccc(Cl)c(Cl)c4)sc3c2)ccn1 | 105%

System: NCI-H23
Test: Antiproliferative activity against human NCI-H23 cells assessed as cell growth at 10^-6 M after 48 hrs by sulforhodamine B assay
Format: functional
Details: NCI-H23, 48 h, read-out: Activity

Row | SMILES | growth at 1 µM
32 | CNC(=O)c1cc(Oc2ccc3nc(NC(=O)Nc4ccc(Cl)c(Cl)c4)sc3c2)ccn1 | 88%

System: ACHN
Test: Antiproliferative activity against human ACHN cells assessed as growth inhibition after 48 hrs by sulforhodamine B assay
Format: functional
Details: not given

Row | SMILES | GI50 | LC50 | TGI
33 | CNC(=O)c1cc(Oc2ccc3nc(NC(=O)Nc4ccc(Cl)c(Cl)c4)sc3c2)ccn1 | 2.1 µM | > 100 µM | 5.56 µM

System: not listed separately
Test: Antiproliferative activity against human UACC257 cells assessed as cell growth at 10^-4 M after 48 hrs by sulforhodamine B assay
Format: functional
Details: UACC-257, 48 h, read-out: Activity

Row | SMILES | growth at 100 µM
34 | CNC(=O)c1cc(Oc2ccc3nc(NC(=O)Nc4ccc(Cl)c(Cl)c4)sc3c2)ccn1 | 7%

System: EKVX
Test: Antiproliferative activity against human EKVX cells assessed as cell growth at 10^-8 M after 48 hrs by sulforhodamine B assay
Format: functional
Details: read-out: Activity

Row | SMILES | growth at 0.01 µM
35 | CNC(=O)c1cc(Oc2ccc3nc(NC(=O)Nc4ccc(Cl)c(Cl)c4)sc3c2)ccn1 | 89%

System: not listed separately
Test: Antiproliferative activity against human TK10 cells assessed as cell growth at 10^-8 M after 48 hrs by sulforhodamine B assay
Format: functional
Details: TK-10, 48 h, read-out: Activity

Row | SMILES | growth at 0.01 µM
36 | CNC(=O)c1cc(Oc2ccc3nc(NC(=O)Nc4ccc(Cl)c(Cl)c4)sc3c2)ccn1 | 107%

System: not listed separately
Test: Antiproliferative activity against human HOP62 cells assessed as cell growth at 10^-7 M after 48 hrs by sulforhodamine B assay
Format: functional
Details: HOP-62, 48 h, read-out: Activity

Row | SMILES | growth at 0.1 µM
37 | CNC(=O)c1cc(Oc2ccc3nc(NC(=O)Nc4ccc(Cl)c(Cl)c4)sc3c2)ccn1 | 112%

System: NCI-H460
Test: Antiproliferative activity against human NCI-H460 cells assessed as cell growth at 10^-6 M after 48 hrs by sulforhodamine B assay
Format: functional
Details: NCI-H460, 48 h, read-out: Activity

Row | SMILES | growth at 1 µM
38 | CNC(=O)c1cc(Oc2ccc3nc(NC(=O)Nc4ccc(Cl)c(Cl)c4)sc3c2)ccn1 | 107%

System: not listed separately
Test: Antiproliferative activity against human HCT15 cells assessed as cell growth at 10^-8 M after 48 hrs by sulforhodamine B assay
Format: functional
Details: HCT-15, 48 h, read-out: Activity

Row | SMILES | growth at 0.01 µM
39 | CNC(=O)c1cc(Oc2ccc3nc(NC(=O)Nc4ccc(Cl)c(Cl)c4)sc3c2)ccn1 | 89%

System: not listed separately
Test: Antiproliferative activity against human SNB19 cells assessed as cell growth at 10^-8 M after 48 hrs by sulforhodamine B assay
Format: functional
Details: SNB-19, 48 h, read-out: Activity

Row | SMILES | growth at 0.01 µM
40 | CNC(=O)c1cc(Oc2ccc3nc(NC(=O)Nc4ccc(Cl)c(Cl)c4)sc3c2)ccn1 | 98%
